# Measurements reported in ChEMBL document CHEMBL1201862, “PubChem BioAssay data set” (2004).
#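 Cultured in 96-well plates, cells were exposed to test compound for 48 hours across five concentrations. At the GI50, growth is halved.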 Active and inactive are the calls of the source. Rule as the data show it: active = GI50 up to about 1.1 µM and inactive = higher.
# Assays:
# Test in all cases: NCI-60 cell line screen, 48 h
# 786-0 = system: 786-0
# A498 = system: A498
# COLO 205 = system: COLO 205
# HCC 2998 = system: HCC 2998
# HL-60 = system: HL-60
# HOP-62 = system: HOP-62
# Hs-578T = system: Hs-578T
# LOX IMVI = system: LOX IMVI
# MCF7 = system: MCF7
# MDA-MB-435 = system: MDA-MB-435
# MDA-N = system: MDA-N
# MOLT-4 = system: MOLT-4
# OVCAR-4 = system: OVCAR-4
# OVCAR-5 = system: OVCAR-5
# OVCAR-8 = system: OVCAR-8
# SF-539 = system: SF-539
# SK-MEL-2 = system: SK-MEL-2
# SK-MEL-5 = system: SK-MEL-5
# SK-OV-3 = system: SK-OV-3
# T47D = system: T47D
Compound,GI50 (786-0),GI50 (A498),GI50 (COLO 205),GI50 (HCC 2998),GI50 (HL-60),GI50 (HOP-62),GI50 (Hs-578T),GI50 (LOX IMVI),GI50 (MCF7),GI50 (MDA-MB-435),GI50 (MDA-N),GI50 (MOLT-4),GI50 (OVCAR-4),GI50 (OVCAR-5),GI50 (OVCAR-8),GI50 (SF-539),GI50 (SK-MEL-2),GI50 (SK-MEL-5),GI50 (SK-OV-3),GI50 (T47D)
Cn1c([N+](=O)[O-])cnc1CN1CCN(CCO)CC1,> 100 µM (inactive),> 100 µM (inactive),> 100 µM (inactive),> 100 µM (inactive),> 100 µM (inactive),> 100 µM (inactive),> 100 µM (inactive),> 100 µM (inactive),> 100 µM (inactive),> 100 µM (inactive),> 100 µM (inactive),> 100 µM (inactive),> 100 µM (inactive),> 100 µM (inactive),> 100 µM (inactive),> 100 µM (inactive),> 100 µM (inactive),> 100 µM (inactive),> 100 µM (inactive),> 100 µM (inactive)
N#Cc1ccc(-n2c3ccccc3c3ccc4c(c32)C(=O)C=CC4=O)cc1,1.56 µM (inactive),1.85 µM (inactive),2.79 µM (inactive),8.43 µM (inactive),0.578 µM (active),15.3 µM (inactive),4.16 µM (inactive),2.99 µM (inactive),2.52 µM (inactive),2.01 µM (inactive),4.99 µM (inactive),0.348 µM (active),3.78 µM (inactive),17.8 µM (inactive),3.66 µM (inactive),3.94 µM (inactive),8.87 µM (inactive),5.02 µM (inactive),13.8 µM (inactive),2.74 µM (inactive)
N#Cc1ncn(-c2ccccc2)c1N,> 100 µM (inactive),> 100 µM (inactive),> 100 µM (inactive),> 100 µM (inactive),> 100 µM (inactive),> 100 µM (inactive),> 100 µM (inactive),> 100 µM (inactive),> 100 µM (inactive),> 100 µM (inactive),> 100 µM (inactive),> 100 µM (inactive),> 100 µM (inactive),> 100 µM (inactive),> 100 µM (inactive),> 100 µM (inactive),> 100 µM (inactive),> 100 µM (inactive),> 100 µM (inactive),> 100 µM (inactive)
CCOc1ccnc2c(OC)c(C)c3nc4ccccc4nc3c12,> 100 µM (inactive),> 100 µM (inactive),> 100 µM (inactive),> 100 µM (inactive),> 100 µM (inactive),> 100 µM (inactive),> 100 µM (inactive),> 100 µM (inactive),26 µM (inactive),> 100 µM (inactive),> 100 µM (inactive),82.6 µM (inactive),> 100 µM (inactive),> 100 µM (inactive),57.4 µM (inactive),> 100 µM (inactive),> 100 µM (inactive),> 100 µM (inactive),> 100 µM (inactive),3.31 µM (inactive)
CCOC(=O)/C(=C\NCC(OCC)OCC)c1nc2ccccc2[nH]1,31.5 µM (inactive),48.6 µM (inactive),16.5 µM (inactive),20.1 µM (inactive),23.9 µM (inactive),31.8 µM (inactive),35.6 µM (inactive),24.8 µM (inactive),30.1 µM (inactive),25 µM (inactive),29 µM (inactive),17.1 µM (inactive),31.9 µM (inactive),48.6 µM (inactive),32.8 µM (inactive),26.2 µM (inactive),22.3 µM (inactive),14.5 µM (inactive),75 µM (inactive),21.6 µM (inactive)
Cc1cc2c(cc1C)C(=O)/C(=C/c1ccccc1C(=O)O)C2,40.3 µM (inactive),31.8 µM (inactive),19.5 µM (inactive),27.4 µM (inactive),30.5 µM (inactive),42.4 µM (inactive),34 µM (inactive),25.9 µM (inactive),50 µM (inactive),34.8 µM (inactive),47.8 µM (inactive),25.4 µM (inactive),35 µM (inactive),23.6 µM (inactive),38.4 µM (inactive),18.7 µM (inactive),35.4 µM (inactive),47.6 µM (inactive),,47.8 µM (inactive)
CC(=O)Nc1sc(Br)cc1S(=O)(=O)c1ccc(Cl)cc1,26.2 µM (inactive),47.2 µM (inactive),> 10 µM (inactive),19.4 µM (inactive),21.9 µM (inactive),,20 µM (inactive),,12.8 µM (inactive),28.1 µM (inactive),43.5 µM (inactive),35.1 µM (inactive),23.2 µM (inactive),26.2 µM (inactive),26.9 µM (inactive),0.731 µM (active),30.1 µM (inactive),> 10 µM (inactive),43.1 µM (inactive),32.1 µM (inactive)
CCOC(=O)c1nnc2c(C#N)c(-c3ccccc3)c(C)n2c1N,56.1 µM (inactive),26.8 µM (inactive),32.9 µM (inactive),32.5 µM (inactive),,85.7 µM (inactive),24.6 µM (inactive),34.7 µM (inactive),39.4 µM (inactive),32 µM (inactive),27 µM (inactive),30.5 µM (inactive),10.9 µM (inactive),> 100 µM (inactive),28.4 µM (inactive),30.9 µM (inactive),42.4 µM (inactive),39.9 µM (inactive),23.9 µM (inactive),53.7 µM (inactive)
CCOC(=O)C1(C(=O)OCC)C[C@]23OCCC(=O)[C@H]2[C@H]2C(=O)OC(C)(C)O[C@]23C1,> 100 µM (inactive),> 100 µM (inactive),> 100 µM (inactive),> 100 µM (inactive),> 100 µM (inactive),> 100 µM (inactive),> 100 µM (inactive),> 100 µM (inactive),> 100 µM (inactive),> 100 µM (inactive),> 100 µM (inactive),> 100 µM (inactive),> 100 µM (inactive),> 100 µM (inactive),> 100 µM (inactive),> 100 µM (inactive),> 100 µM (inactive),> 100 µM (inactive),,> 100 µM (inactive)
CN(C)CCNC(=O)c1cccc2nc3cccc(F)c3nc12,0.653 µM (active),1.91 µM (inactive),0.317 µM (active),1.49 µM (inactive),1.48 µM (inactive),1.97 µM (inactive),1.41 µM (inactive),0.614 µM (active),1.48 µM (inactive),1.56 µM (inactive),1.46 µM (inactive),0.366 µM (active),1.47 µM (inactive),2.6 µM (inactive),0.843 µM (active),1.86 µM (inactive),2.13 µM (inactive),1.13 µM (inactive),,3.31 µM (inactive)
COC(=O)c1ccc2c(c1)CC1(C2)Cc2cc3c(cc2C1)CCC3,> 100 µM (inactive),> 100 µM (inactive),,> 100 µM (inactive),> 100 µM (inactive),> 100 µM (inactive),> 100 µM (inactive),> 100 µM (inactive),> 100 µM (inactive),> 100 µM (inactive),> 100 µM (inactive),> 100 µM (inactive),> 100 µM (inactive),> 100 µM (inactive),> 100 µM (inactive),> 100 µM (inactive),98.2 µM (inactive),> 100 µM (inactive),> 100 µM (inactive),> 100 µM (inactive)
Cc1[nH]c2ncn(/N=C/c3ccccc3)c(=N)c2c1Cc1ccccc1,> 100 µM (inactive),60.8 µM (inactive),> 100 µM (inactive),83.9 µM (inactive),> 100 µM (inactive),> 100 µM (inactive),> 100 µM (inactive),89.9 µM (inactive),79.6 µM (inactive),84.1 µM (inactive),55.1 µM (inactive),53 µM (inactive),> 100 µM (inactive),> 100 µM (inactive),> 100 µM (inactive),38.5 µM (inactive),87.1 µM (inactive),,> 100 µM (inactive),> 100 µM (inactive)
Cn1nc(-c2ccccc2)c2c(-c3ccccc3)c3cc(Cl)ccc3nc21,> 100 µM (inactive),> 100 µM (inactive),,> 100 µM (inactive),18.2 µM (inactive),> 100 µM (inactive),> 76.4 µM (inactive),> 90.4 µM (inactive),82 µM (inactive),> 100 µM (inactive),> 100 µM (inactive),15.8 µM (inactive),> 100 µM (inactive),> 100 µM (inactive),> 100 µM (inactive),,> 100 µM (inactive),> 100 µM (inactive),> 100 µM (inactive),> 100 µM (inactive)
Clc1ccc(C2=NN=C3C(c4ccccc4)=Nc4ccccc4N3C2)cc1,5.28 µM (inactive),56.1 µM (inactive),5.68 µM (inactive),17.9 µM (inactive),2.56 µM (inactive),10.8 µM (inactive),2.09 µM (inactive),3.76 µM (inactive),4.4 µM (inactive),4.72 µM (inactive),7.03 µM (inactive),0.957 µM (active),2.01 µM (inactive),,4.05 µM (inactive),19.3 µM (inactive),17.7 µM (inactive),3.27 µM (inactive),> 74.8 µM (inactive),1.45 µM (inactive)
